Test results: patent US20230219951A1, “PYRIDINE-PYRIMIDINE DERIVATIVE, PREPARATION METHOD THEREFOR AND PHARMACEUTICAL USE THEREOF” (Jiangsu Hengrui Pharmaceuticals Co., Ltd., priority 2020, published 2023)

Key:
H358 cells = assay: Inhibition of proliferation of H358 cells (CellTiter-Glo 3D); type: cell-based; conditions: Homo sapiens, NCI-H358, low adsorption plate, 120 h
Experimental: This example is intended to evaluate the inhibition effect of the compounds of the present disclosure on the KRAS target (containing the G12C mutation) by testing the inhibition effect of the compounds of the present disclosure on the proliferation of H358 cells.
H358 cells (ATCC, CRL-5807) were cultured in a complete medium, namely RPMI1640 medium (Hyclone, SH30809.01) containing 10% fetal bovine serum (Corning, 35-076-CV). On the first day of the experiment, the H358 cells were seeded into a 96-well low adsorption plate (Coming, CLS7007-24EA) at a density of 1500 cells/well with a complete medium to form 90 μL of cell suspension per well. The plate was centrifuged at 2000 rpm for 5 min at room temperature and then incubated overnight in a cell incubator at 37° C. with 5% CO2. The next day, 10 μL of test compound diluted in a gradient prepared with the complete medium was added to each well. The final concentrations of the compound were 9 concentration points obtained by 5-fold gradient dilution from 10 μM. A blank control containing 0.1% DMSO was set. The plate was incubated in a cell incubator at 37° C. with 5% CO2 for 120 h. On the seventh day, the 96-well cell culture plate was taken out and 50 μL of CellTiter-Glo® 3D reagent (Promega, G9682) was added into each well. The plate was shaken at room temperature for 25 min, pipetted and mixed well, from which 50 μL of the mixture was transferred into a white impermeable 96-well plate (PE, 6005290). The luminescence signal values were read using a multi-mode microplate reader (PerkinElmer, VICTOR 3).
IC50 values for the inhibitory activity of the compounds were calculated using Graphpad Prism software.

[1] = system: ERK phosphorylation of H358 cells; assay: Inhibition of ERK phosphorylation of H358 cells (HTRF pERK/total ERK); type: cell-based; conditions: Homo sapiens, NCI-H358, 1 h incubation, pERK/total ERK ratio
Experimental: This experiment is intended to evaluate the inhibition effect of the compounds of the present disclosure on the KRAS target (containing the G12C mutation) according to IC50 by determining the inhibition effect of the compounds on ERK phosphorylation of the cells.
H358 cells (ATCC, CRL-5807) were cultured in RPMI1640 (Hyclone, SH30809.01) complete medium containing 10% fetal bovine serum. On the first day of the experiment, the H358 cells were seeded into a 96-well plate at a density of 25,000 cells/well with a complete medium to form 190 μL of cell suspension per well. The plate was incubated overnight in a cell incubator at 37° C. with 5% CO2. The next day, 10 μL of test compound diluted in a gradient prepared with the complete medium was added to each well. The final concentrations of the compound were 9 concentration points obtained by 5-fold gradient dilution from 10 μM. A blank control containing 0.1% DMSO was set. The plate was incubated in a cell incubator at 37° C. with 5% CO2 for 1 h. 1 h later, the 96-well cell culture plate was taken out, the medium was removed by pipetting, 200 μL PBS (Shanghai BasalMedia Technologies Co., Ltd., B320) was added to each well, and the cells were washed once. PBS was removed by pipetting, 50 μL of lysis buffer (Cisbio, 64KL1FDF) containing a blocking reagent (Cisbio, 64KB1AAC) was added to each well, and the plate was shaken on a shaker at room temperature for 40 min for lysis. After lysis, the lysate was pipetted and mixed well, 16 μL of lysate was transferred from each well to each of two HTRF 96-well assay plates (Cisbio, 66PL96100), and then 4 μL of premixed phospho-ERK1/2 antibody solution (Cisbio, 64AERPEG) or 4 μL of premixed total-ERK1/2 antibody solution (Cisbio, 64NRKPEG) was added to each of the two plates. The microplate was sealed with a sealing membrane, centrifuged for 1 min in a microplate centrifuge, and incubated overnight at room temperature away from the light. On the third day, the fluorescence values at an excitation wavelength of 337 nm and at emission wavelengths of 665 nm and 620 nm were read using a PHERAstar multi-mode microplate reader (BMG Labtech, S/N 471-0361).
IC50 values for inhibitory activity of the compounds were calculated using Graphpad Prism software based on compound concentrations and pERK/total ERK ratio.

[2] = target: T1, interaction between the KRAS protein subtype G12V and the SOS1 protein (Homo sapiens, UniProt Q07889); assay: Inhibition of the interaction between KRAS G12V and SOS1 protein (AlphaLISA/AlphaScreen); type: binding; conditions: KRAS G12V + GST-TEV-SOS1(564-1049) + GDP
T1 construct: GST-TEV-SOS1(564-1049) (Viva Biotech, SOS1-191010); purchased SOS1: Viva Biotech; KRAS: Shanghai Panchao Biotechnology Co., Ltd. SOS1-191010
T1 sequence (Q07889 564-1049): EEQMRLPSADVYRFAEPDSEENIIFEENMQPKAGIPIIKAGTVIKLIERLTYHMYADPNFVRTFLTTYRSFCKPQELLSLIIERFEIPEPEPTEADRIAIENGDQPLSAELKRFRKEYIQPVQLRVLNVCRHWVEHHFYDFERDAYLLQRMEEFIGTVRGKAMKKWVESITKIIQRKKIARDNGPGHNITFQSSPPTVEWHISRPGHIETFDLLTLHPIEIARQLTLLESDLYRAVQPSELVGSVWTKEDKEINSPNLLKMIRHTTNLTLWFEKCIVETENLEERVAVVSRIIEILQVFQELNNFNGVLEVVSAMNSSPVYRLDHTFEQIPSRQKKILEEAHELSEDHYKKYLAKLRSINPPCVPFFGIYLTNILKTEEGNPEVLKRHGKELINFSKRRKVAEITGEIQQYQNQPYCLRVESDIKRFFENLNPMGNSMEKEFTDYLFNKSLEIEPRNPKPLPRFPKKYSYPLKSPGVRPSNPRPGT
Experimental: (§1) Test Example 1: Inhibitory Ability of Compounds of the Present Disclosure to the Interaction Between the KRAS Protein Subtype G12D or G12V and the SOS1 Protein. The inhibitory ability of the compounds of the present disclosure to the interaction between the KRAS protein subtype G12D or G12V and the SOS1 protein was determined by the following method. The experimental method was briefly described as follows:
(§2) 1. The experimental buffer was prepared prior to the start of the experiment: 1×PBS+0.1% BSA+0.05% tween 20.
(§3) 2. KRAS G12D and KRAS-G12V proteins were labeled with biotin using the biotin labeling kit.
(§4) 1. Firstly, the biotin-labeled KRAS G12D or KRAS G12V protein was mixed and incubated with the SOS1 protein and GDP for later use.
(§5) 2. AlphaLISA glutathione acceptor beads and AlphaScreen streptavidin donor beads were mixed at a ratio of 1:1 to make the concentration of 40 μg/mL for later use.
(§6) 3. The compound was formulated with the experimental buffer to obtain 10 concentration points by 5-fold gradient dilution from an initial concentration of 40 μM.
(§7) 4. In the 384-well microplate, 10 μL of a mixture of KRAS G12D or KRAS G12V protein and SOS1 and GDP and 5 μL of the diluted compound were added to each well and incubated at room temperature for 30 min away from the light.
(§8) 5. Then, 5 μL of a mixture of AlphaLISA glutathione acceptor beads and AlphaScreen streptavidin donor beads was added to each well and incubated at room temperature for 60 min away from the light.
(§9) 6. The fluorescence values were read on a multi-mode microplate reader.
(§10) 7. IC50 values of the compounds were calculated using Graphpad Prism.

[3] = target: T2, interaction between the KRAS protein subtype G12D and the SOS1 protein (Homo sapiens, UniProt Q07889); assay: Inhibition of the interaction between KRAS G12D and SOS1 protein (AlphaLISA/AlphaScreen); type: binding; conditions: KRAS G12D + GST-TEV-SOS1(564-1049) + GDP
T2 construct: GST-TEV-SOS1(564-1049) (Viva Biotech, SOS1-191010); purchased SOS1: Viva Biotech; KRAS: Shanghai Panchao Biotechnology Co., Ltd. SOS1-191010
T2 sequence (Q07889 564-1049): T1 sequence (Q07889 564-1049)
Experimental: as §1, §2, §3, §4, §5, §6, §7, §8, §9, §10

Row | SMILES | IC50 (H358 cells) [nM] | IC50 [1] [nM] | IC50 [2] [nM] | IC50 [3] [nM]
1 | Cc1nc(N[C@H](C)c2cccc(C(F)F)c2F)c2cc(OC3CN(C(=O)CF)C3)c(=O)[nH]c2n1 [Example 27, (R)-4-((1-(3-(difluoromethyl)-2-fluorophenyl)ethyl)amino)-6-((1-(2-fluoroacetyl)azetidin-3-yl)oxy)-2-methylpyrido[2,3-R]pyrimidin-7(8H)-one] | 202 | 258 | 52 | 20
2 | Cc1nc(N[C@H](C)c2cccc(C(F)F)c2F)c2cc([C@]3(O)CC[C@H](O)CC3)c(=O)[nH]c2n1 [Example 18-p2, 4-(((R)-1-(3-(difluoromethyl)-2-fluorophenyl)ethyl)amino)-6-((1r,4R)-1,4-dihydroxycyclohexyl)-2-methylpyrido[2,3-d]pyrimidin-7(8H)-one] | 213 | 222 | 112 | 40
3 | Cc1nc(N[C@H](C)c2cccc(C(F)F)c2F)c2cc(C3CCN(C(=O)CC#N)CC3)c(=O)[nH]c2n1 [Example 17, (R)-3-(4-(4-((1-(3-(difluoromethyl)-2-fluorophenyl)ethyl)amino)-2-methyl-7-oxo-7,8-dihydropyrido[2,3-d]pyrimidin-6-yl)piperidin-1-yl)-3-oxopropanenitrile] | 65 | 79 | 30 | 28
